Test results taken from patent publication US20240083853A1, “HSD17B13 INHIBITORS AND USES THEREOF” (FL2022-001, Inc., priority 2020, published 2024).

target: T1, Recombinant human HSD17B13 enzyme (Homo sapiens, UniProt Q7Z5P4); assay: HSD17b13 NAD(P)H-Glo biochemical assay; details: 50 uM estradiol, 1 mM NAD+, NAD(P)H-Glo luminescence; read-out: HSD17β13 IC50
T1 sequence (Q7Z5P4 20-300): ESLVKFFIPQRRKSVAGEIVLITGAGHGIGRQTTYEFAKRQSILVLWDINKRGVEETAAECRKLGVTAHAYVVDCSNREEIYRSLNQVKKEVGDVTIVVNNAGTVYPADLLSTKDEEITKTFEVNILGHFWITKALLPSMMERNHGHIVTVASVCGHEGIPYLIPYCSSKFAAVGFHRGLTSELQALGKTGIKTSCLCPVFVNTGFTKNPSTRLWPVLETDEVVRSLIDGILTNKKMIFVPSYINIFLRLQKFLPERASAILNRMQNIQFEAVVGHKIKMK
Method: Example B-1: HSD17b13 NAD(P)H-Glo Biochemical Assay
Recombinant human HSD17B13 enzyme. Substrate: estradiol (Sigma β-Estradiol E8875), 100 mM in DMSO. Cofactor: NAD+ Grade I free acid (Sigma 10127965001), 20 mM in H2O. Assay buffer final concentration: 20 mM Tris pH7.4 with 0.002% Tween-20 and 0.02% BSA. Assay performed in 384 well solid bottom plate (Corning 3570). Enzymatic activity detected by NAD(P)H-Glo™ Detection System (Promega G9062).
Inhibitor compounds were serially diluted in DMSO and then further diluted in assay buffer to a 10× concentration consisting of 1% DMSO.
HSD17b13 enzyme was diluted in 1× assay buffer to the desired enzyme concentration based on the specific activity of the enzyme lot. 20 uL of diluted enzyme was added to each well along with 2.5 uL of 10× inhibitor solution. Assay plate was incubated at RT for 20 minutes, and then 2.5 uL of a 10× substrate/cofactor mix was added to each well for a final concentration of 50 uM estradiol and 1 mM NAD+. Assay plate was incubated at 37° C. for 3 hours. NAD(P)H-Glo™ Detection System reagents were prepared according to manufacturer's specifications, and 25 uL was added to each well. After incubating for 1 hour at RT, luminescence was measured.

Row | Compound | IC50
1 | N#CC1CCN(c2ccc(-n3ncc4cc(F)c(O)c(F)c43)cc2)CC1 [Compound 22, 1-(4-(5,7-Difluoro-6-hydroxy-1H-indazol-1-yl)phenyl)piperidine-4-carbonitrile] | < 100 nM
2 | CC1(O)CCN(c2ccc(-n3ncc4cc(F)c(O)c(F)c43)cc2)CC1 [Compound 23.22, 5,7-Difluoro-1-(4-(4-hydroxy-4-methylpiperidin-1-yl)phenyl)-1H-indazol-6-ol] | 100 to 1000 nM
3 | Oc1cc2c(cnn2-c2ccc(-c3ccc(O)c(Cl)c3)cc2)cc1F [Compound 15, 1-(3′-Chloro-4′-hydroxy-[1,1′-biphenyl]-4-yl)-5-fluoro-1H-indazol-6-ol] | 100 to 1000 nM
4 | CC1(C)CCN(c2ccc(-n3c(=O)n(CO)c4cc(F)c(O)c(F)c43)cc2)CC1 [Compound 21.12, 3-(4-(4,4-Dimethylpiperidin-1-yl)phenyl)-4,6-difluoro-5-hydroxy-1-(hydroxymethyl)-1H-benzo[d]imidazol-2(3H)-one] | < 100 nM
5 | C[C@H]1CN(c2ccc(-n3ncc4cc(F)c(O)c(F)c43)cc2)C[C@H](C)O1 (relative stereo) [Compound 20, 1-(4-(trans-2,6-Dimethylmorpholino)phenyl)-5,7-difluoro-1H-indazol-6-ol] | < 100 nM
6 | CC1(C)CCN(c2ccc(-n3cnc4cc(F)c(O)c(F)c43)cc2)CC1 [Compound 21.5, 1-(4-(4,4-Dimethylpiperidin-1-yl)phenyl)-5,7-difluoro-1H-benzo[d]imidazol-6-ol] | < 100 nM
7 | CC1(C)CCN(c2ccc(-n3nnc4cc(F)c(O)c(F)c43)cc2)CC1 [Compound 21, 1-(4-(4,4-Dimethylpiperidin-1-yl)phenyl)-5,7-difluoro-1H-benzo[d][1,2,3]triazol-6-ol] | < 100 nM
8 | CC(C)C1CCN(c2ccc(-n3ncc4cc(F)c(O)c(F)c43)cc2)CC1 [Compound 20.9, 5,7-Difluoro-1-(4-(4-isopropylpiperidin-1-yl)phenyl)-1H-indazol-6-ol] | < 100 nM
9 | Oc1cccc(-c2ccc(-n3ncc4c(F)c(F)c(O)cc43)cc2)c1 [Compound 8, 4,5-Difluoro-1-(3′-hydroxy-[1,1′-biphenyl]-4-yl)-1H-indazol-6-ol] | 100 to 1000 nM
10 | N#Cc1cccc(-c2ccc(-n3ncc4cc(F)c(O)cc43)cc2)c1 [Compound 13.17, 4′-(5-Fluoro-6-hydroxy-1H-indazol-1-yl)-[1,1′-biphenyl]-3-carbonitrile] | 100 to 1000 nM
11 | CC(C)C1(C)CCN(c2ccc(-n3ncc4cc(F)c(O)c(F)c43)cc2)CC1 [Compound 24.6, 5,7-Difluoro-1-(4-(4-isopropyl-4-methylpiperidin-1-yl)phenyl)-1H-indazol-6-ol] | < 100 nM
12 | CC1(C)CCN(c2ccc(-n3ncc4c(C#N)c(F)c(O)cc43)cc2)CC1 [Compound 7.1, 1-(4-(4,4-Dimethylpiperidin-1-yl)phenyl)-5-fluoro-6-hydroxy-1H-indazole-4-carbonitrile] | 100 to 1000 nM
13 | Cc1ccc(-c2ccc(-n3ncc4cc(F)c(O)cc43)cc2)cc1 [Compound 13.11, 5-Fluoro-1-(4′-methyl-[1,1′-biphenyl]-4-yl)-1H-indazol-6-ol] | 100 to 1000 nM
14 | Oc1cccc(-c2ccc(-n3nc(F)c4cc(F)c(O)c(F)c43)cc2)c1 [Compound 5.4, 3,5,7-Trifluoro-1-(3′-hydroxy-[1,1′-biphenyl]-4-yl)-1H-indazol-6-ol] | 100 to 1000 nM
15 | Oc1c(F)cc2ncn(-c3ccc(N4CC5(CCOCC5)C4)cc3)c2c1F [Compound 20.11, 1-(4-(7-Oxa-2-azaspiro[3.5]nonan-2-yl)phenyl)-5,7-difluoro-1H-benzo[d]imidazol-6-ol] | 100 to 1000 nM
16 | Oc1c(F)cc2nnn(-c3ccc(N4CC5(CCOCC5)C4)nn3)c2c1F [Compound 26.24, 1-(6-(7-Oxa-2-azaspiro[3.5]nonan-2-yl)pyridazin-3-yl)-5,7-difluoro-1H-benzo[d][1,2,3]triazol-6-ol] | 1000 to 30000 nM
17 | Oc1c(F)cc2cnn(-c3ncc(-c4ccc(Cl)cc4)cn3)c2c1F [Compound 18.4, 1-(5-(4-Chlorophenyl)pyrimidin-2-yl)-5,7-difluoro-1H-indazol-6-ol] | < 100 nM
18 | Oc1cc2c(nnn2-c2ccc(N3CC4(CCOCC4)C3)cc2)c(F)c1F [Compound 40.3, 1-(4-(7-oxa-2-azaspiro[3.5]nonan-2-yl)phenyl)-4,5-difluoro-1H-benzo[d][1,2,3]triazol-6-ol] | 100 to 1000 nM

Row | Compound | IC50
19 | OCc1cccc(-c2ccc(-n3ncc4cc(F)c(O)cc43)cc2)c1 [Compound 13.22, 5-Fluoro-1-(3′-(hydroxymethyl)-[1,1′-biphenyl]-4-yl)-1H-indazol-6-ol] | 1000 to 30000 nM
20 | Oc1c(F)cc2cnn(-c3ccc(N4CCC(O)CC4)cc3)c2c1F [Compound 23.1, 5,7-Difluoro-1-(4-(4-hydroxypiperidin-1-yl)phenyl)-1H-indazol-6-ol] | 100 to 1000 nM
21 | Oc1cc2c(cnn2-c2ccc(-c3ccccn3)cc2)cc1F [Compound 13.13, 5-Fluoro-1-(4-(pyridin-2-yl)phenyl)-1H-indazol-6-ol] | 1000 to 30000 nM
22 | Oc1c(F)cc2cnn(-c3ccc(N4CCC5(CCC5)CC4)cc3)c2c1F [Compound 23.24, 1-(4-(7-Azaspiro[3.5]nonan-7-yl)phenyl)-5,7-difluoro-1H-indazol-6-ol] | < 100 nM
23 | N#Cc1ccc(-c2ccc(-n3ncc4cc(F)c(O)c(F)c43)cc2)cc1 [Compound 13.39, 4′-(5,7-Difluoro-6-hydroxy-1H-indazol-1-yl)-[1,1′-biphenyl]-4-carbonitrile] | < 100 nM
24 | CS(=O)(=O)N1CCN(c2ccc(-n3nnc4cc(F)c(O)c(F)c43)cc2)CC1 [Compound 21.3, 5,7-Difluoro-1-(4-(4-(methylsulfonyl)piperazin-1-yl)phenyl)-1H-benzo[d][1,2,3]triazol-6-ol] | < 100 nM
25 | CS(=O)(=O)N1CCC(c2ccc(-n3cnc4cc(F)c(O)c(F)c43)cc2)CC1 [Compound 28, 5,7-Difluoro-1-(4-(1-(methylsulfonyl)piperidin-4-yl)phenyl)-1H-benzo[d]imidazol-6-ol] | < 100 nM
26 | Oc1cc2c(cnn2-c2ccc(Nc3ccccc3)cc2)cc1F [Compound 3, 5-Fluoro-1-(4-(phenylamino)phenyl)-1H-indazol-6-ol] | 100 to 1000 nM
27 | CC1(C)CCN(c2ccc(-n3c(=O)oc4cc(F)c(O)c(F)c43)cc2)CC1 [Compound 39, 3-(4-(4,4-Dimethylpiperidin-1-yl)phenyl)-4,6-difluoro-5-hydroxybenzo[d]oxazol-2(3H)-one] | < 100 nM
28 | Oc1cc2c(cnn2-c2ccc(-c3ccccc3O)cc2)cc1F [Compound 13.2, 5-Fluoro-1-(2′-hydroxy-[1,1′-biphenyl]-4-yl)-1H-indazol-6-ol] | 100 to 1000 nM
29 | Oc1c(F)cc2cnn(-c3ccc(N4CC5CC(C4)O5)cc3)c2c1F [Compound 23.16, 1-(4-(6-Oxa-3-azabicyclo[3.1.1]heptan-3-yl)phenyl)-5,7-difluoro-1H-indazol-6-ol] | 100 to 1000 nM
30 | Oc1ccc(-c2ccc(-n3ncc4cc(F)c(O)cc43)cc2)cc1 [Compound 2.1, 5-Fluoro-1-(4′-hydroxy-[1,1′-biphenyl]-4-yl)-1H-indazol-6-ol] | 100 to 1000 nM
31 | CC1(C)CN(c2ccc(-n3ncc4cc(F)c(O)c(F)c43)cc2)CC(C)(C)O1 [Compound 20.12, 5,7-Difluoro-1-(4-(2,2,6,6-tetramethylmorpholino)phenyl)-1H-indazol-6-ol] | < 100 nM
32 | NS(=O)(=O)c1cccc(-c2ccc(-n3ncc4cc(F)c(O)cc43)cc2)c1 [Compound 13.37, 4′-(5-Fluoro-6-hydroxy-1H-indazol-1-yl)-[1,1′-biphenyl]-3-sulfonamide] | 100 to 1000 nM
33 | CC(C)N1CCC(c2ccc(-n3ncc4cc(F)c(O)c(F)c43)cc2)CC1 [Compound 27.8, 5,7-Difluoro-1-(4-(1-isopropylpiperidin-4-yl)phenyl)-1H-indazol-6-ol] | < 100 nM
34 | COC1CCN(c2ccc(-n3ncc4cc(F)c(O)c(F)c43)cc2)CC1 [Compound 22.4, 5,7-Difluoro-1-(4-(4-methoxypiperidin-1-yl)phenyl)-1H-indazol-6-ol] | < 100 nM
35 | CC1(C)CCN(c2ccc(-n3nnc4cc(F)c(O)c(F)c43)nc2)CC1 [Compound 26.14, 1-(5-(4,4-Dimethylpiperidin-1-yl)pyridin-2-yl)-5,7-difluoro-1H-benzo[d][1,2,3]triazol-6-ol] | < 100 nM

same assay, conditions: 3 h; at 10 uM compound; read-out: HSD17β13 % at 10 uM

Row | Compound | inhibition at 10 µM
36 | CS(=O)(=O)N1CCN(c2ccc(-n3ncc4ccc(O)cc43)cc2)CC1 [Compound 26.5, 1-(4-(4-(Methylsulfonyl)piperazin-1-yl)phenyl)-1H-indazol-6-ol] | 35%

same assay, conditions: 3 h; at 30 uM compound; read-out: HSD17β13 % at 30 uM

Row | Compound | inhibition at 30 µM
37 | Oc1cc2c(cnn2-c2ccc(-c3ccncc3)cc2)cc1F [Compound 13.15, 5-Fluoro-1-(4-(pyridin-4-yl)phenyl)-1H-indazol-6-ol] | 40%
